Source: the NIST ThermoML archive (doi:10.1016/j.tca.2012.07.004)

Test: xn = mol fraction of the nth substance listed
Details: 101 kPa, Liquid; for mass density: Vibrating tube method; for viscosity: Vibrating wire viscometry; for speed of sound: ultrasonic interferometer

C[NH+](C)C.O=S(=O)([O-])O [trimethylammonium hydrogen sulfate] + CN1CCCC1=O
Details | mass density, 308.15 K [kg/m3] | mass density, 313.15 K [kg/m3] | speed of sound, 308.15 K [m/s] | speed of sound, 313.15 K [m/s] | viscosity, 308.15 K [mPa·s] | viscosity, 313.15 K [mPa·s]
x1 = 0.0183 | 1029.88 | 1024.27 | 1529 | 1521 | 1.91 | 1.45
x1 = 0.0369 | 1041.19 | 1035.08 | 1530 | 1523 | 2.48 | 1.76
x1 = 0.0964 | 1073.31 | 1066.52 | 1534 | 1526 | 4.55 | 3.52
x1 = 0.138 | 1091.47 | 1083.97 | 1536 | 1528 | 5.68 | 4.79
x1 = 0.2014 | 1115.24 | 1107.81 | 1539 | 1530 | 7.18 | 6.19
x1 = 0.3115 | 1146.54 | 1135.87 | 1545 | 1539 | 8.38 | 7.09
x1 = 0.3587 | 1155.39 | 1145.43 | 1549 | 1541 | 8.48 | 7.14
x1 = 0.4311 | 1170.29 | 1157.43 | 1553 | 1545 | 8.26 | 6.99
x1 = 0.5579 | 1196.63 | 1185.37 | 1560 | 1550 | 7.19 | 6.15
x1 = 0.6955 | 1239.34 | 1225.55 | 1561 | 1551 | 5.89 | 4.7
x1 = 0.775 | 1273.99 | 1260.83 | 1560 | 1550 | 5.25 | 3.99
x1 = 0.843 | 1315.25 | 1295.67 | 1559 | 1553 | 4.4 | 3.52
x1 = 0.9375 | 1383.15 | 1369.46 | 1558 | 1552 | 4.28 | 3.35
x1 = 0.97 | 1417.02 | 1404.25 | 1557 | 1552 | 4.01 | 3.23
x1 = 1 | 1463.5 | 1455.63 | 1556 | 1552 | 3.94 | 3.16
